Measured values reported in PMC9918889, “Alkaloids and Styryl lactones from Goniothalamus ridleyi King and Their α-Glucosidase Inhibitory Activity” (Molecules, 2023).
Converted amounts (≈) assume the structure as drawn.

Key:
α-glucosidase = assay: colorimetric α-glucosidase inhibitory assay; type: biochemical; settings: for %Inhibition at 250 µg/mL: sample at 250 µg/mL; for IC50: substrate p-nitrophenyl α-D-glucoside, 37 °C
Procedure: The previously reported approach was used to perform a colorimetric α-glucosidase assay. Briefly, the tested samples (50 µL) were combined with 50 µL of the α-glucosidase enzyme solution (0.05 U/mL) and preincubated at 37 °C for 5 min. The substrate (50 µL, c 1 mM), p-nitrophenyl α-D-glucoside, was added and incubated at 37 °C for 30 min. Then, 50 µL of Na2CO3 (0.3 M) was added. The absorption of the mixture was measured at 405 nm.

Plasmodium falciparum = tested on: Plasmodium falciparum; design: method as in PMID 19573585; settings: cited from earlier work
HCT116 = tested on: HCT116; design: method as in PMID 31918304; settings: colon cancer cell line HCT116; read-out: IC50, cytotoxicity against HCT116; cited from earlier work

Compound	%Inhibition at 250 µg/mL (α-glucosidase) [%]	also measured
Cn1cc(C(=O)O)c2c1C(=O)c1ccccc1C2=O [Compound 3, goniochelienic acid B]	99.5	
C[C@@H]1C2=C(NC(=O)[C@@H]1O)C(=O)c1ccccc1C2=O [Compound 4, griffithazanone A]	98.0	
(−)-nordicentrine		IC50, antiplasmodial activity (Plasmodium falciparum): 0.3 µg/mL
O=C1C=CC(=CC=Cc2ccccc2)O1 [Compound 7, 5-(3-phenyl-2-propenylidene)-2(5H)-furanone]	98.6	IC50 (α-glucosidase): 1.25 ± 0.4 µM
O=C1C=CCC(/C=C\c2ccccc2)O1 (stereo not shown) [(Z)-6-styryl-5,6-dihydro-2-pyranone]		IC50 (HCT116): 22.2 µM
CC(=O)O[C@H]1[C@H]2OC(=O)C=C[C@@H]2O[C@H]1c1ccccc1 [(+)-3-Acetylaltholactone]		IC50, antiplasmodial activity (Plasmodium falciparum): 2.6 µg/mL (≈ 9.48 µM)
O=C1C=C[C@@H](O)[C@@H](/C=C/c2ccccc2)O1 [Compound 9, (−)-5-hydroxygoniothalamin]	99.8	
Cn1cc(CO)c2c1C(=O)c1ccccc1C2=O [Compound 2, 3-hydroxymethyl-1-methyl-1H-benz[f]indole-4,9-dione]	99.3	
COc1cccc2c1cc1c3c(cc4c(c32)OC2Oc3c(cc5c6c(cc7ccccc7c36)NC5=O)OC2O4)C(=O)N1 (stereo not shown) [Compound 1, Gonioridleylactam]	99.6	IC50 (α-glucosidase): 138.9 ± 0.9 µM; melting point: 296 to 298 °C
C[C@H]1O[C@H](O[C@H]2[C@H](O)[C@@H](O)[C@@H](O[C@H]3[C@H](O)[C@@H](O)C(O)O[C@@H]3CO)O[C@@H]2CO)[C@H](O)[C@@H](O)[C@@H]1N[C@H]1C=C(CO)[C@@H](O)[C@H](O)[C@H]1O (stereo partly shown) [Acarbose, reference compound]	88.1	
